SMILES strings stand for the structures.

As a reminder, the IC50 is the concentration that inhibits the measured activity by half.

The target of the experiment is PARP7 (Homo sapiens (Human), UniProt Q7Z3E1). In words: Enzymatic assay for inhibition of PARP7: TR-FRET displacement of biotinylated Probe A from the TIPARP active site. The class given is binding. Conditions: Table A-1. The procedure, abridged:
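Percent inhibition derives from the ratio of 665 to 615 nm emission, which reports how much Probe A remains bound to TIPARP. Plates sat 30 min at 25° C before the time-resolved read (320 nm excitation).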

Sequence of PARP7 (Q7Z3E1 whole entry): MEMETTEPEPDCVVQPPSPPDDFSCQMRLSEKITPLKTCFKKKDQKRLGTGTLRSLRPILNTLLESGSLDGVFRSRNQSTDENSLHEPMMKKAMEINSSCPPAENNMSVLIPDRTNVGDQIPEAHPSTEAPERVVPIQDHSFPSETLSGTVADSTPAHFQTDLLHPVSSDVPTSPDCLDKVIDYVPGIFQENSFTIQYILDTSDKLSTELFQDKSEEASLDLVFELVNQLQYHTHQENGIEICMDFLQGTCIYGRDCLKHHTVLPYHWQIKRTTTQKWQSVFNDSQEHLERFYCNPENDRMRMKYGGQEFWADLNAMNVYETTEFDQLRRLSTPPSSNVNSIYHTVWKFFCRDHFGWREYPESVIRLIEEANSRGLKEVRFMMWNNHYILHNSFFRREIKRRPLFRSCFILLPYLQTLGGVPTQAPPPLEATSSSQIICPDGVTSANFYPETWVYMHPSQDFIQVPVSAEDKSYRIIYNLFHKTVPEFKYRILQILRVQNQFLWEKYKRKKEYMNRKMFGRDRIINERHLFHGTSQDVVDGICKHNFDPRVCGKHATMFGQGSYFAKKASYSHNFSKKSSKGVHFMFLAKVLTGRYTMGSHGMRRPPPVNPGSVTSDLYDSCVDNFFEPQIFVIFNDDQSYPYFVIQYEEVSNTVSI

In turn, `N#Cc1ccc(N2CCN(C(=O)CCCOC[C@H]3c4ccccc4CN3c3cn[nH]c(=O)c3C(F)(F)F)CC2)nc1` [Example 409, (R)-6-(4-(4-((2-(6-Oxo-5-(trifluoromethyl)-1,6-dihydropyridazin-4-yl)isoindolin-1-yl)methoxy)butanoyl)piperazin-1-yl)nicotinonitrile] came in with an IC50 of 100 to 1000 nM.

In turn, `N#Cc1ccc(N2CCN(C(=O)CCCOC[C@@H]3c4ccccc4CN3c3cn[nH]c(=O)c3C(F)(F)F)CC2)nc1` [Example 410, (S)-6-(4-(4-((2-(6-Oxo-5-(trifluoromethyl)-1,6-dihydropyridazin-4-yl)isoindolin-1-yl)methoxy)butanoyl)piperazin-1-yl)nicotinonitrile] showed an IC50 of less than 100 nM. For the compound `N#Cc1ccc(N2CCN(C(=O)CCCOCC3c4ncccc4CN3c3cn[nH]c(=O)c3C(F)(F)F)CC2)nc1` (stereo not drawn) [Example 411, 6-(4-(4-((6-(6-Oxo-5-(trifluoromethyl)-1,6-dihydropyridazin-4-yl)-6,7-dihydro-5H-pyrrolo[3,4-b]pyridin-7-yl)methoxy)butanoyl)piperazin-1-yl)nicotinonitrile], the IC50 was less than 100 nM. `N#Cc1ccc(N2CCN(C(=O)CCOCC3c4ncccc4CN3c3cn[nH]c(=O)c3C(F)(F)F)CC2)nc1` (stereo not drawn) [Example 412, 6-(4-(3-((6-(6-Oxo-5-(trifluoromethyl)-1,6-dihydropyridazin-4-yl)-6,7-dihydro-5H-pyrrolo[3,4-b]pyridin-7-yl)methoxy)propanoyl)piperazin-1-yl)nicotinonitrile] returned an IC50 of less than 100 nM.

In turn, `N#Cc1ccc(N2CCN(C(=O)CCOC[C@@H]3c4ccccc4CN3c3cn[nH]c(=O)c3Cl)CC2)nc1` [Example 413, (S)-6-(4-(3-((2-(5-Chloro-6-oxo-1,6-dihydropyridazin-4-yl)isoindolin-1-yl)methoxy)propanoyl)piperazin-1-yl)nicotinonitrile] came in with an IC50 of less than 100 nM. As for `N#Cc1ccc(N2CCN(C(=O)CCOC[C@H]3c4ccccc4CN3c3cn[nH]c(=O)c3Cl)CC2)nc1` [Example 414, (R)-6-(4-(3-((2-(5-Chloro-6-oxo-1,6-dihydropyridazin-4-yl)isoindolin-1-yl)methoxy)propanoyl)piperazin-1-yl)nicotinonitrile], the IC50 was 100 to 1000 nM. Compound `O=C(CCOC[C@@H]1c2ccccc2CN1c1cn[nH]c(=O)c1Cl)N1CCN(c2ncc(C(F)(F)F)cn2)CC1` [Example 415, (S)-4-Chloro-5-(1-((3-oxo-3-(4-(5-(trifluoromethyl)pyrimidin-2-yl)piperazin-1-yl)propoxy)methyl)isoindolin-2-yl)pyridazin-3(2H)-one] registered an IC50 of less than 100 nM. `O=C(CCOC[C@H]1c2ccccc2CN1c1cn[nH]c(=O)c1Cl)N1CCN(c2ncc(C(F)(F)F)cn2)CC1` [Example 416, (R)-4-Chloro-5-(1-((3-oxo-3-(4-(5-(trifluoromethyl)pyrimidin-2-yl)piperazin-1-yl)propoxy)methyl)isoindolin-2-yl)pyridazin-3(2H)-one] yielded an IC50 of 100 to 1000 nM. The same measure for `O=C(CCOC[C@@H]1c2ccccc2CN1c1cn[nH]c(=O)c1C(F)(F)F)N1CCNCC1` [Example 417, (S)-5-(1-((3-Oxo-3-(piperazin-1-yl)propoxy)methyl)isoindolin-2-yl)-4-(trifluoromethyl)pyridazin-3(2H)-one]: 100 to 1000 nM; for `O=C(CCOC[C@H]1c2ccccc2CN1c1cn[nH]c(=O)c1C(F)(F)F)N1CCNCC1` [Example 418, (R)-5-(1-((3-Oxo-3-(piperazin-1-yl)propoxy)methyl)isoindolin-2-yl)-4-(trifluoromethyl)pyridazin-3(2H)-one 0.4 formic acid]: not below 1000 nM. As to `CC(=O)N1CCN(C(=O)CCOC[C@@H]2c3ccccc3CN2c2cn[nH]c(=O)c2C(F)(F)F)CC1` [Example 419, (S)-5-(1-((3-(4-Acetylpiperazin-1-yl)-3-oxopropoxy)methyl)isoindolin-2-yl)-4-(trifluoromethyl)pyridazin-3(2H)-one], the half-inhibitory concentration (IC50) was less than 100 nM.

For the compound `CC(=O)N1CCN(C(=O)CCOC[C@H]2c3ccccc3CN2c2cn[nH]c(=O)c2C(F)(F)F)CC1` [Example 420, (R)-5-(1-((3-(4-Acetylpiperazin-1-yl)-3-oxopropoxy)methyl)isoindolin-2-yl)-4-(trifluoromethyl)pyridazin-3(2H)-one], the IC50 is not below 1000 nM. `CN1CCN(C(=O)CCOC[C@@H]2c3ccccc3CN2c2cn[nH]c(=O)c2C(F)(F)F)CC1` [Example 421, (S)-5-(1-((3-(4-Methylpiperazin-1-yl)-3-oxopropoxy)methyl)isoindolin-2-yl)-4-(trifluoromethyl)pyridazin-3(2H)-one] had a 50% inhibitory concentration (IC50) of 100 to 1000 nM. Then `CN1CCN(C(=O)CCOC[C@H]2c3ccccc3CN2c2cn[nH]c(=O)c2C(F)(F)F)CC1` [Example 422, (R)-5-(1-((3-(4-Methylpiperazin-1-yl)-3-oxopropoxy)methyl)isoindolin-2-yl)-4-(trifluoromethyl)pyridazin-3(2H)-one], with not below 1000 nM; and `N#CCCC(=O)N1CCN(C(=O)CCOC[C@@H]2c3ccccc3CN2c2cn[nH]c(=O)c2C(F)(F)F)CC1` [Example 423, (S)-4-Oxo-4-(4-(3-((2-(6-oxo-5-(trifluoromethyl)-1,6-dihydropyridazin-4-yl)isoindolin-1-yl)methoxy)propanoyl)piperazin-1-yl)butanenitrile], with less than 100 nM; and `N#CCCC(=O)N1CCN(C(=O)CCOC[C@H]2c3ccccc3CN2c2cn[nH]c(=O)c2C(F)(F)F)CC1` [Example 424, (R)-4-Oxo-4-(4-(3-((2-(6-oxo-5-(trifluoromethyl)-1,6-dihydropyridazin-4-yl)isoindolin-1-yl)methoxy)propanoyl)piperazin-1-yl)butanenitrile], with not below 1000 nM. `N#Cc1ccc(N2CCN(C(=O)CCNC[C@H]3c4ccccc4CN3c3cn[nH]c(=O)c3Cl)CC2)nc1` [Example 425, (R)-6-(4-(3-(((2-(5-Chloro-6-oxo-1,6-dihydropyridazin-4-yl)isoindolin-1-yl)methyl)amino)propanoyl)piperazin-1-yl)nicotinonitrile]: the IC50 was not below 1000 nM.

With `N#Cc1ccc(N2CCN(C(=O)CCNC[C@@H]3c4ccccc4CN3c3cn[nH]c(=O)c3Cl)CC2)nc1` [Example 426, (S)-6-(4-(3-(((2-(5-Chloro-6-oxo-1,6-dihydropyridazin-4-yl)isoindolin-1-yl)methyl)amino)propanoyl)piperazin-1-yl)nicotinonitrile], the IC50 was less than 100 nM. For the compound `CN(CCC(=O)N1CCN(c2ccc(C#N)cn2)CC1)C[C@@H]1c2ccccc2CN1c1cn[nH]c(=O)c1C(F)(F)F` [Example 427, (S)-6-(4-(3-(Methyl((2-(6-oxo-5-(trifluoromethyl)-1,6-dihydropyridazin-4-yl)isoindolin-1-yl)methyl)amino)propanoyl)piperazin-1-yl)nicotinonitrile], the IC50 was less than 100 nM. Then `CN(CCC(=O)N1CCN(c2ccc(C#N)cn2)CC1)C[C@H]1c2ccccc2CN1c1cn[nH]c(=O)c1C(F)(F)F` [Example 428, (R)-6-(4-(3-(Methyl((2-(6-oxo-5-(trifluoromethyl)-1,6-dihydropyridazin-4-yl)isoindolin-1-yl)methyl)amino)propanoyl)piperazin-1-yl)nicotinonitrile], with 100 to 1000 nM; and `CN(CCC(=O)N1CCN(c2ccc(C#N)cn2)CC1)C[C@@H]1c2ccccc2CN1c1cn[nH]c(=O)c1Cl` [Example 429, (S)-6-(4-(3-(((2-(5-Chloro-6-oxo-1,6-dihydropyridazin-4-yl)isoindolin-1-yl)methyl)(methyl)amino)propanoyl)piperazin-1-yl)nicotinonitrile], with less than 100 nM. As for `CN(CCC(=O)N1CCN(c2ccc(C#N)cn2)CC1)C[C@H]1c2ccccc2CN1c1cn[nH]c(=O)c1Cl` [Example 430, (R)-6-(4-(3-(((2-(5-Chloro-6-oxo-1,6-dihydropyridazin-4-yl)isoindolin-1-yl)methyl)(methyl)amino)propanoyl)piperazin-1-yl)nicotinonitrile], the half-maximal inhibitory concentration (IC50) was in the range of 100 to 1000 nM.

Compound `N#Cc1ccc(N2CCN(C(=O)CCOC[C@@H]3c4ncccc4CN3c3cn[nH]c(=O)c3Cl)CC2)nc1` [Example 431, (S)-6-(4-(3-((6-(5-Chloro-6-oxo-1,6-dihydropyridazin-4-yl)-6,7-dihydro-5H-pyrrolo[3,4-b]pyridin-7-yl)methoxy)propanoyl)piperazin-1-yl)nicotinonitrile] had an IC50 of less than 100 nM. `N#Cc1ccc(N2CCN(C(=O)CCOC[C@H]3c4ncccc4CN3c3cn[nH]c(=O)c3Cl)CC2)nc1` [Example 432, (R)-6-(4-(3-((6-(5-Chloro-6-oxo-1,6-dihydropyridazin-4-yl)-6,7-dihydro-5H-pyrrolo[3,4-b]pyridin-7-yl)methoxy)propanoyl)piperazin-1-yl)nicotinonitrile] had an IC50 of 100 to 1000 nM.

In turn, `O=C(CCNC[C@@H]1c2ccccc2CN1c1cn[nH]c(=O)c1C(F)(F)F)N1CCN(c2ncc(C(F)(F)F)cn2)CC1` [Example 433, (S)-5-(1-(((3-Oxo-3-(4-(5-(trifluoromethyl)pyrimidin-2-yl)piperazin-1-yl)propyl)amino)methyl)isoindolin-2-yl)-4-(trifluoromethyl)pyridazin-3(2H)-one] came in with a half-maximal inhibitory concentration (IC50) of less than 100 nM. The same measure for `O=C(CCNC[C@H]1c2ccccc2CN1c1cn[nH]c(=O)c1C(F)(F)F)N1CCN(c2ncc(C(F)(F)F)cn2)CC1` [Example 434, (R)-5-(1-(((3-Oxo-3-(4-(5-(trifluoromethyl)pyrimidin-2-yl)piperazin-1-yl)propyl)amino)methyl)isoindolin-2-yl)-4-(trifluoromethyl)pyridazin-3(2H)-one]: not below 1000 nM; for `N#Cc1ccc(N2CCN(C(=O)c3cccc(OCC4CCCN4c4cn[nH]c(=O)c4C(F)(F)F)c3)CC2)nc1` (stereo not drawn) [Example 435, 6-(4-(3-((1-(6-Oxo-5-(trifluoromethyl)-1,6-dihydropyridazin-4-yl)pyrrolidin-2-yl)methoxy)benzoyl)piperazin-1-yl)nicotinonitrile]: less than 100 nM.

The values are drawn from US10550105B2 (Ribon Therapeutics Inc., priority 2018, dated 2020).
